From patent US8882877B2, “Boron-containing synergistic urea and preparation method and application thereof” (Beijing J-Tec Technology Co., Ltd, priority 2012, dated 2014)

Legend:
celery = experiment: Celery fertilizer test (equivalent and decrement fertilizer); assay type: in vivo
Text: Test Three: Celery Fertilizer Test 1. Test material: The tested fertilizer is the boron-containing synergistic urea developed and supplied by Beijing J-Tec Technology Co., Ltd. (the boron-containing synergistic urea (1) in Embodiment 3) while the control fertilizer is ordinary small granular urea and large granular urea in line with national standards: the tested vegetable is celery. Area under jurisdiction of […], Shandong Province 3. Test Method: equivalent fertilizer test area and decrement fertilizer test area are arranged, two treatment areas are provided in each test area, and each treatment area is arranged repeatedly for 3 times, ranked in random area and group. Treatment Area 1: the boron-containing synergistic urea is applied, calculated by 70 kg per mu, and flushed together with water after emergence of seedlings; Treatment Area 2: ordinary small granular urea (as a control area, ck), calculated by 70 kg per mu, and flushed together with water after emergence of seedlings. Treatment Area 1: the boron-containing synergistic urea is applied with a decrement of 20%, calculated by 56 kg per mu, base fertilizer and additional fertilizer each makes up 50%; Treatment Area 2: ordinary large granular urea, calculated by 70 kg per mu, base fertilizer and additional fertilizer each makes up 50%. 4. Test Requirement: The celery in each treatment area is harvested, weighed, and calculated separately during each collection and harvest. No other fertilizer is applied during the whole test period, and other cultivation and management measures are the same.

tomato = experiment: Tomato fertilizer test (equivalent and decrement fertilizer); assay type: in vivo
Text: Test Four: Tomato Fertilizer Test
Test Site Laiyang: City, Shandong Province.
Grow seedling in greenhouse at Feb. 24, 2011, and plant in the greenhouse with a tomato plantation density of 4200 plant/mu.
(§1) 1. The tested fertilizer is the boron-containing synergistic urea developed and supplied by Beijing J-Tec Technology Co., Ltd. (the boron-containing synergistic urea (1) in Embodiment 3, under a trade name of “polypeptide chelated potassium”) while the control fertilizer is ordinary small granular urea and large granular urea in line with national standards; the tested vegetable is tomato (variety of “Millennium”, ? ).
(§2) 2. Test Method: equivalent fertilizer test area and decrement fertilizer test area are arranged, two treatment areas are provided in each test area, and each treatment area is arranged repeatedly for 3 times, ranked in random area and group, each treatment area has an area of 20 m^2 (5 m long, 4 m wide).
Treatment Area 1: the boron-containing synergistic urea is applied, calculated by 70 kg per mu, and flushed together with water after emergence of seedlings;
Treatment Area 2: ordinary small granular urea (as a control area, ck), calculated by 70 kg per mu, and flushed together with water after emergence of seedlings.
Treatment Area 1: the boron-containing synergistic urea is applied with a decrement of 20%, calculated by 56 kg per mu, base fertilizer and additional fertilizer each makes up 50%;
Treatment Area 2: ordinary large granular urea (as a control area, ck), calculated by 70 kg per mu, base fertilizer and additional fertilizer each makes up 50%.
3. Test Requirement: The tomato in each treatment area is harvested, weighed, and calculated separately during each collection and harvest. No other fertilizer is applied during the whole test period, and other cultivation and management measures are the same.
Select one plot (12 plots in total, indicated as 1st plot, 2nd plot and 3rd plot corresponding to each test) randomly from each treatment area 1 and treatment area 2 (control area) respectively, all are 1 m long, 1.45 m wide, and the harvested tomato is weighed on site, and results are as follows: […]

bacterial wilt = experiment: Tomato disease resistance: incidence of bacterial wilt; assay type: in vivo; conditions: tomato plants in test area vs control area (ck)
Text: as §1, §2
1. Tomato Growing Potential and Disease Resistance

apple tree = experiment: Apple tree fertilizer test (equivalent and decrement fertilizer); assay type: in vivo, apple tree (Red Fuji apple); conditions: Control Test Area, ordinary urea 70 kg per mu
Text: Test Five: Apple Tree Fertilizer Test 1. Test Fertilizer: the tested fertilizer is the boron-containing synergistic urea developed and supplied by Beijing J-Tec Technology Co., Ltd. (the boron-containing synergistic urea (1) in Embodiment 3) while the control fertilizer is ordinary small granular urea and large granular urea in line with national standards the tested fruit tree is apple tree (variety of “Red Fuji apple”, ? ). 2. Test Site: […], Shandong Province, 3. Tested Variety: apple tree of four years old, variety is Red Fuji apple, planting space is 2 m×3 m, plants with moderate growth, similar tree vigor, and substantially consistent yield, and conventional orchard management is conducted before the test. 4. Test Method: equivalent fertilizer test area and decrement fertilizer test area are arranged, two treatment areas are provided in each test area, 3 tested plants are included in each treatment area and each treatment area is arranged repeatedly for 3 times, ranked in random area and group; The fertilizer is applied in small holes near the plants, and the fertilizing periods are fertilizer application after leaves falling in autumn and additional fertilizer application during fruit expanding period (July and August). Treatment Area 1: the boron-containing synergistic urea is applied, calculated by 70 kg per mu, and flushed together with water; Treatment Area 2: ordinary small granular urea (as a control area, ck), calculated by 70 kg per mu, and flushed together with water. Treatment Area 1: the boron-containing synergistic urea is applied with a decrement of 20%, calculated by 56 kg per mu, base fertilizer and additional fertilizer each makes up 50%; Treatment Area 2: ordinary large granular urea (as a control area, ck), calculated by 70 kg per mu, base fertilizer and additional fertilizer each makes up 50%. Make statistical analysis to flowering numbers and petal numbers in each flower during full-blossom period in spring, and make statistical analysis to fruit setting percentage after full-blossom period and before flower thinning. Measure and record once a month after growth of new shoots; Pick 30 fruits randomly from different portions after fruit ripening, and weigh the single fruit with an electronic balance scale, measure the longitudinal diameter and the transverse diameter with a vernier caliper; observe the fruit surface and the coloring of the fruit; determine the hardness of fruit with a hardometer.

rape = experiment: Rape fertilizer test (topdressing); assay type: in vivo; conditions: topdressing 20 kg per mu
Text: Test Two: Rape Fertilizer Test 1. Test Material: The tested fertilizer is the boron-containing synergistic urea developed and supplied by Beijing J-Tec Technology Co., Ltd. (the boron-containing synergistic urea (1) in Embodiment 3) while the control fertilizer is ordinary urea available in the market. Nanyang site: Yuanxiang Village, Nanyang Town, Qidong City of Jiangsu Province, an area of 4 mu, rape variety is “Shi Li Jia ? )”. Lvsi site: Nanxinqiao Village, […] Town, Qidong City, an area of 5 mu. 3. Test Method: the boron-containing synergistic urea is used as a topdressing fertilizer (additional fertilizer), 20 kg per mu; while the control field adopts ordinary urea (commercially available), 20 kg per mu. 4. Assessment Content: prior to harvest, field assessments such as density, plant height, effective branch, yield structure are conducted; after harvest, recount the actual yield, and the results are shown in Table 3.

soybean = experiment: Soybean fertilizer field plot test; assay type: in vivo
Text: Test One: Soybean Fertilizer Test During the process of growth, the moisture and temperature are basically normal, which have no particular influence on the test. The basic information for the test plot is: mound albic soil, organic matter content 3.73%, and thickness of black soil layer is 18-20 cm, 1. The tested fertilizer is the boron-containing synergistic urea developed and supplied by Beijing J-Tec Technology Co., Ltd. (the boron-containing synergistic urea (1) in Embodiment 3) while the control fertilizer is ordinary urea available in the market. 2. Field tests adopt plot test (the test plot is located in Haluo Town, […], Shandong Province), three test areas are provided, each test area is divided into three treatment areas, each treatment area is 25.2 m^2, and the three test areas are tested in parallel. Apply base fertilizers uniformly in each test area and sow 4 rows in each treatment area, and subsequently apply additional fertilizers in the three treatment areas as below: Treatment Area 1: additionally apply 5 kg boron-containing synergistic urea once per mu in the flowering and pod bearing period of the soybean; Treatment Area 2: additionally apply 4 kg boron-containing synergistic urea once per mu in the flowering and pod bearing period of the soybean; Treatment Area 3 (control area, ck): additionally apply 5 kg ordinary urea once per mu in the flowering and pod bearing period of the soybean as a control; 4. Adopt normal field management in the growth period of the soybean, harvest and monitor the yield in the mature period respectively, and take the average values of the corresponding treatment areas in the three test areas as the statistical results, see Table 1.

[1] = Decrement fertilizer test (56 kg per mu) and its control (70 kg per mu)
[2] = Decrement fertilizer test (synergistic urea 56 kg per mu) and its control (large granular urea 70 kg per mu)
[3] = Equivalent fertilizer test and its control, 70 kg per mu
[4] = Equivalent fertilizer test and its control, 70 kg per mu, flushed with water
[5] = Lvsi site, two months after fertilizer application
[6] = Nanyang site, two months after fertilizer application
[7] = Treatment Area 1 / 3 (ck): 5 kg per mu
[8] = Treatment Area 1 / 3 (ck): 5 kg per mu once in flowering and pod bearing period

NC(N)=O [ordinary large granular urea, urea]
Yield (celery; 20% decrement fertilizer test, 1st plot, synergistic urea 56 kg per mu, control large granular urea 70 kg per mu): 6.8 kg
Yield (celery; 20% decrement fertilizer test, 2nd plot, synergistic urea 56 kg per mu, control large granular urea 70 kg per mu): 6.0 kg
Yield (celery; 20% decrement fertilizer test, 3rd plot, synergistic urea 56 kg per mu, control large granular urea 70 kg per mu): 5.7 kg
Yield (celery; 20% decrement fertilizer test, three plots in total, synergistic urea 56 kg per mu, control 70 kg per mu): 18.5 kg
observation of celery leaves (celery; Decrement fertilizer test, 30 days after sowing): green and thin leaves
Average Yield among three plots (tomato; [1]): 116.0 kg
Average Yield per mu (tomato; [1]): 3896.7 kg
Yield 1st plot (tomato; [2]): 114.3 kg
Yield 2nd plot (tomato; [2]): 118.1 kg
Yield 3rd plot (tomato; [2]): 115.6 kg

NC(N)=O [ordinary small granular urea, urea]
Yield (celery; Equivalent fertilizer test, 70 kg per mu, 1st plot (1 m x 1.45 m), 52 days after applying fertilizer): 6.6 kg
Yield (celery; Equivalent fertilizer test, 70 kg per mu, 2nd plot, 52 days after applying fertilizer): 7.5 kg
Yield (celery; Equivalent fertilizer test, 70 kg per mu, 3rd plot, 52 days after applying fertilizer): 8.15 kg
Yield (celery; Equivalent fertilizer test, 70 kg per mu, three plots in total): 22.25 kg
Average Yield among three plots (tomato; [3]): 114.5 kg
Average Yield per mu (tomato; [3]): 3863.3 kg
Yield 1st plot (tomato; [4]): 111.6 kg
Yield 2nd plot (tomato; [4]): 113.8 kg
Yield 3rd plot (tomato; [4]): 118.0 kg

NC(N)=O [ordinary urea, urea]
incidence of bacterial wilt (bacterial wilt): 4.54%
Fruit Setting Percentage (apple tree): 74.6%
Increment of New Shoots (apple tree): 34.50 cm
Leaf Weight (apple tree): 79.74 g
Single Fruit Weight (apple tree): 202.1 g
1000-Grain Weight (rape; Average of the two test sites): 4.1 g
Density (rape; Average of the two test sites): 5550 plant
Effective Branch (rape; Average of the two test sites): 27 each
Grains per pod (rape; Average of the two test sites): 19.8 grain
Plant Height (rape; Average of the two test sites): 190.5 cm
Yield (rape; Average of the two test sites): 262.7 kg/mu
pods per plant (rape; Average of the two test sites): 583 pod
Yield (rape; Lvsi site): 251.7 kg/mu
1000-Grain Weight (rape; [5]): 3.7 g
Density (rape; [5]): 5550 plant
Effective Branch (rape; [5]): 26 each
Grains per pod (rape; [5]): 20.5 grain
Plant Height (rape; [5]): 185 cm
pods per plant (rape; [5]): 598 pod
Yield (rape; Nanyang site): 269.5 kg/mu
1000-Grain Weight (rape; [6]): 4.5 g
Density (rape; [6]): 5550 plant
Effective Branch (rape; [6]): 28 each
Grains per pod (rape; [6]): 19 grain
Plant Height (rape; [6]): 196 cm
pods per plant (rape; [6]): 568 pod
Practical Yield (soybean; [7]): 131.8 kg/mu
Theoretical Yield (soybean; [7]): 134.5 kg/mu
100-Grain Weight (soybean; [8]): 15.7 g
Diseased Grain Rate (soybean; [8]): 9.7%
Grains Weight (soybean; [8]): 7.5 g/Plant
Grains per Plant (soybean; [8]): 65.8 Grains/Plant
Plant Height (soybean; [8]): 77.4 cm
Unfilled Grains (soybean; [8]): 28.9 Grains/Plant
Worm Eaten Rate (soybean; [8]): 17.9%
pods per plant (soybean; [8]): 30.1 Pods/Plant
